From patent EP4745137A1 (Gluetacs Therapeutics (Shanghai) Co., Ltd., priority 2023, dated 2025) come the findings set out here.

Read-outs that look alike come from different tables or passages of the source. Where only a bound is given, the exact number is not on record here.

The target in one assay is T1, IKZF2 (Homo sapiens, UniProt Q96SW2+Q9UKS7).
T1 construct: endogenous in cells; host or cells: hPBMCs (Milecell Biotechnologies)
Briefly: Western-blot assay of substrate protein degradation in hPBMCs, IKZF2. The class given is cell-based. As to conditions: 24 hours of compound treatment, compounds tested at 50 nM and 500 nM (concentration of the table not stated).

For the next assay, the target named is T2, GSPT1 (Homo sapiens, UniProt P15170+Q96SW2).
T2 construct: endogenous in cells; host or cells: hPBMCs (Milecell Biotechnologies)
Kind of assay: Western-blot assay of substrate protein degradation in hPBMCs, GSPT1. The class given is cell-based. As to conditions: 24 hours of compound treatment, compounds tested at 50 nM and 500 nM (concentration of the table not stated).

The target of another assay is T3, CK1α (Homo sapiens, UniProt P48729+Q96SW2).
T3 construct: endogenous in cells; host or cells: hPBMCs (Milecell Biotechnologies)
Kind of assay: Western-blot assay of substrate protein degradation in hPBMCs, CK1α. The class given is cell-based. The conditions noted are these: 24 hours of compound treatment, compounds tested at 50 nM and 500 nM (concentration of the table not stated).

Another assay addresses T4, IKZF3 (Homo sapiens, UniProt Q96SW2+Q9UKT9).
T4 construct: endogenous in cells; host or cells: hPBMCs (Milecell Biotechnologies)
Briefly: Western-blot assay of substrate protein degradation in hPBMCs, IKZF3. As to conditions: 24 hours of compound treatment, compounds tested at 50 nM and 500 nM (concentration of the table not stated). The class given is cell-based.

Assay [1] has as its target T5, human Cereblon WT GST-tagged protein (Homo sapiens, UniProt Q96SW2).
T5 construct: purchased CISBIO 64BDCRBNPEH
Briefly: CRBN-binding affinity by HTRF (CEREBLON BINDING kit). The method, then:
The CEREBLON BINDING kits (specification: 10,000 tests; product number: Catalog # 64BDCRBNPEH; CISBIO company) was used to determine the CRBN binding ability of the compounds to be tested through a HTRF method (homogeneous time-resolved fluorescence). The specific methods are as follows: • 1. […] Specifically, diluent #9 (1X) solution was used as the diluent, and multiple concentration gradients were set. […] Then, 2.5 µL of human Cereblon WT GST-tagged protein solution was added to each well. Finally, 5 µL of the thoroughly mixed Thalidomide-Re reagent and GST Eu antibody working solution were added to each of the aforementioned wells. […] The blank control wells were sequentially added with 2.5 µL of diluent #9 (1X) solution, 2.5 µL of binding buffer, and 5 µL of thoroughly mixed Thalidomide-Re reagent and GST Eu antibody working solution. • 4.
(Time-resolved FRET reads energy transfer from a long-lived donor to a nearby acceptor.)

For the next assay, the target named is T6, WEE1 (Homo sapiens, UniProt P30291+Q96SW2).
T6 construct: endogenous in cells; host or cells: hPBMCs (Milecell Biotechnologies)
Kind of assay: Western-blot assay of substrate protein degradation in hPBMCs, WEE1. The class given is cell-based. As to conditions: 24 hours of compound treatment, compounds tested at 50 nM and 500 nM (concentration of the table not stated).

A further assay has as its target T7, IKZF1 (Homo sapiens, UniProt Q13422+Q96SW2).
T7 construct: endogenous in cells; host or cells: hPBMCs (Milecell Biotechnologies)
Kind of assay: Western-blot assay of substrate protein degradation in hPBMCs, IKZF1. The conditions noted are these: 24 hours of compound treatment, compounds tested at 50 nM and 500 nM (concentration of the table not stated). The class given is cell-based.

[2] abbreviates: HTRF inhibitory activity, CEREBLON BINDING kit; read-out: HTRF IC50.

T3 sequence (P48729 whole entry): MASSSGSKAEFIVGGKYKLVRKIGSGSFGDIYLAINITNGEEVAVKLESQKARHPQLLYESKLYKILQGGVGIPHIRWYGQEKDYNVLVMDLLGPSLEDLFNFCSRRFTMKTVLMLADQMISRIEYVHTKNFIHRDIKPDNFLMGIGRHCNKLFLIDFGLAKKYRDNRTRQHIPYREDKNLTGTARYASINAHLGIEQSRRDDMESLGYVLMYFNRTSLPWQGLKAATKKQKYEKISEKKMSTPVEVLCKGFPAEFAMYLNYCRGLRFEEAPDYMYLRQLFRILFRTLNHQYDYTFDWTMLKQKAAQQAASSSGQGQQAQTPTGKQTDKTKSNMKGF
T3 sequence (Q96SW2 whole entry): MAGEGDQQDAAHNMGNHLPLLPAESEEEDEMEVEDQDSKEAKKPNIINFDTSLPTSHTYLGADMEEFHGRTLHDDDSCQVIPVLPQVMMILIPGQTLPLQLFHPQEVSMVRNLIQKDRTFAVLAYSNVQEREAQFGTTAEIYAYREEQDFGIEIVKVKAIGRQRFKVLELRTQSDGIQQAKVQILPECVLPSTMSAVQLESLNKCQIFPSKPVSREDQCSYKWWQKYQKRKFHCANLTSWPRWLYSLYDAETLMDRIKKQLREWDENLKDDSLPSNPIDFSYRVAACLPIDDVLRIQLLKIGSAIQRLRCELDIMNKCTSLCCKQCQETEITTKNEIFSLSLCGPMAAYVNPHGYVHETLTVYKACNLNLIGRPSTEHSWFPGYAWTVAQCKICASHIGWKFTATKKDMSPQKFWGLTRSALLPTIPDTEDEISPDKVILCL
T3 sequence (Q16531 whole entry partner): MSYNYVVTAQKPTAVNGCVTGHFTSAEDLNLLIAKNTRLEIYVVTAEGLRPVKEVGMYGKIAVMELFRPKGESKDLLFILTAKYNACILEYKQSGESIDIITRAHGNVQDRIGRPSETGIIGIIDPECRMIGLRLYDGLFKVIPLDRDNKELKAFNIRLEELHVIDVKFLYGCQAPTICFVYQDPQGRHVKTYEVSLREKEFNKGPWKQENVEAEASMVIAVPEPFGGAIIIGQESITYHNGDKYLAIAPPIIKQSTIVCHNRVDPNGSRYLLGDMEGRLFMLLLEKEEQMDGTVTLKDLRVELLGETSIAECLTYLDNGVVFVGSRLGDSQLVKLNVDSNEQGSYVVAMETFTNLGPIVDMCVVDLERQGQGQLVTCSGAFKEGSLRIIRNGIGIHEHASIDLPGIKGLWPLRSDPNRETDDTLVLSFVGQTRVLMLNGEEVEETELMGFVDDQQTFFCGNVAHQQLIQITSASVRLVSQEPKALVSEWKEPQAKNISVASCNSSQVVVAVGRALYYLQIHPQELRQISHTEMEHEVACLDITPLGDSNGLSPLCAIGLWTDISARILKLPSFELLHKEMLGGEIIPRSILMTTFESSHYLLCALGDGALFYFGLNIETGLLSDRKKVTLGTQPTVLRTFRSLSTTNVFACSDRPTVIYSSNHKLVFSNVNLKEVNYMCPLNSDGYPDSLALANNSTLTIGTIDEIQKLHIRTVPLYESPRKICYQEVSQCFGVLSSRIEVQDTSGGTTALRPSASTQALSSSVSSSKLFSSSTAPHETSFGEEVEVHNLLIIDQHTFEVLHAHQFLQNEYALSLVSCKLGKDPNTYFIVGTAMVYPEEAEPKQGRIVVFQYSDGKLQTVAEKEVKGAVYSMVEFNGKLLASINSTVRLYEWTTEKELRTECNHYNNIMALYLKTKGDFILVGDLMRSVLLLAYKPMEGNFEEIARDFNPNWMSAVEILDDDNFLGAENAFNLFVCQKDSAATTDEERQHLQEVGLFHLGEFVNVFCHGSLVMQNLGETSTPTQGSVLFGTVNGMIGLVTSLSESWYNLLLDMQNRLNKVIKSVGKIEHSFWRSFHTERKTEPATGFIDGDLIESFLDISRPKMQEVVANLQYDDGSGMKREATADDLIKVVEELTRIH
T1 sequence (Q9UKS7 whole entry): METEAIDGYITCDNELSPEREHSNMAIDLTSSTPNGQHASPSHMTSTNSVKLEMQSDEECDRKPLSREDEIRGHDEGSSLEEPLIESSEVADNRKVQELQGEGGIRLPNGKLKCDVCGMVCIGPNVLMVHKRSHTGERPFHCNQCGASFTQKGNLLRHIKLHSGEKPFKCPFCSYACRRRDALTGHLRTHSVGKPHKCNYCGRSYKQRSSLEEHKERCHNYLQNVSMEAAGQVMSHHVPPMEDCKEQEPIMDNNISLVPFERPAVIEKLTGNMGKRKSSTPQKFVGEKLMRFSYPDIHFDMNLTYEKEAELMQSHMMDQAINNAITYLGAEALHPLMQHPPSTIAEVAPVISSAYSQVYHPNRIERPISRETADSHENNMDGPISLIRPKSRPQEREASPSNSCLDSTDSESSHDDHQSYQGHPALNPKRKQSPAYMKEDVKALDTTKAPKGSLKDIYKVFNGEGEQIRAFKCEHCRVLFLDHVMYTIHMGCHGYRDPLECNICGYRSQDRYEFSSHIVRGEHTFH
T1 sequence (Q96SW2 whole entry): as the sequence (Q96SW2 whole entry) above
T1 sequence (Q16531 whole entry partner): as the sequence (Q16531 whole entry partner) above
T7 sequence (Q13422 whole entry): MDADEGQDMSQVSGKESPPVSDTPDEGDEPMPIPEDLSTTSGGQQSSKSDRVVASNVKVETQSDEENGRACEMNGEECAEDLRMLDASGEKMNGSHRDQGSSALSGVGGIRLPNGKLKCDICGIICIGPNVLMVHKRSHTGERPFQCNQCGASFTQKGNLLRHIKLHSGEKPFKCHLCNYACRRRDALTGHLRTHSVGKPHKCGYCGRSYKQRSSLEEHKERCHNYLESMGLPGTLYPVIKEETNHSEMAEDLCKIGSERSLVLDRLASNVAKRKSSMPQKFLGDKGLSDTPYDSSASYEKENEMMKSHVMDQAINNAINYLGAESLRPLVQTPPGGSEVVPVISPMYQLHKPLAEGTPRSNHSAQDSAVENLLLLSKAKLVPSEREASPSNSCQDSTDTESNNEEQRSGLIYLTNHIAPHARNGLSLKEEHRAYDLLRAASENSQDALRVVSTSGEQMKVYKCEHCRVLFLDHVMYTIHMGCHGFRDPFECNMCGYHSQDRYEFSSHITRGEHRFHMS
T7 sequence (Q96SW2 whole entry): as the sequence (Q96SW2 whole entry) above
T7 sequence (Q16531 whole entry partner): as the sequence (Q16531 whole entry partner) above
T5 sequence (Q96SW2 whole entry): as the sequence (Q96SW2 whole entry) above
T4 sequence (Q9UKT9 whole entry): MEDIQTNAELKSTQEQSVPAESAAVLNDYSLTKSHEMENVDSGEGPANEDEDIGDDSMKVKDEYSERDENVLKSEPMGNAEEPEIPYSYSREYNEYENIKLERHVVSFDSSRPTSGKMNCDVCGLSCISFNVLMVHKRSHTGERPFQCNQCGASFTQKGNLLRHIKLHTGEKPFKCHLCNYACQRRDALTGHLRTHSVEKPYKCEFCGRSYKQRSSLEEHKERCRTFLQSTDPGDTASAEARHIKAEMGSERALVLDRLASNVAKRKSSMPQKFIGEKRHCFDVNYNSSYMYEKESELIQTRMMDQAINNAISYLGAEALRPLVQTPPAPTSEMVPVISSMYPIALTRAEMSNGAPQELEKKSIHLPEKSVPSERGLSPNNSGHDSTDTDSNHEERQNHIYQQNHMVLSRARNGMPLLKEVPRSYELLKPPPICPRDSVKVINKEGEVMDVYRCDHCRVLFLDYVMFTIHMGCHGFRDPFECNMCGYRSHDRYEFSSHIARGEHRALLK
T4 sequence (Q96SW2 whole entry): as the sequence (Q96SW2 whole entry) above
T4 sequence (Q16531 whole entry partner): as the sequence (Q16531 whole entry partner) above
T2 sequence (P15170 whole entry): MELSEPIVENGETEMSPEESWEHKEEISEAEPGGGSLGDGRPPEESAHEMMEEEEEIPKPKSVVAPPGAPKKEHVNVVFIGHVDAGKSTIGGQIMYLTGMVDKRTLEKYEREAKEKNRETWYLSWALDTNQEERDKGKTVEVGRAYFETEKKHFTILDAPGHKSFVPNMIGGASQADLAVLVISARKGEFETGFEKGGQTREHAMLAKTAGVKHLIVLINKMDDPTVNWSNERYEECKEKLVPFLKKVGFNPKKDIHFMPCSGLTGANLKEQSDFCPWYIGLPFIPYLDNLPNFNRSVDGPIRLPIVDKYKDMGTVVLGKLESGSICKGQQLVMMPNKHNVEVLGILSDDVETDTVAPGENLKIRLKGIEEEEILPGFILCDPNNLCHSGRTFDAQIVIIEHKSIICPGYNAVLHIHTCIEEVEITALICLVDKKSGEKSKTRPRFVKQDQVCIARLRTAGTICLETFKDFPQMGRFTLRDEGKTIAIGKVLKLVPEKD
T2 sequence (Q96SW2 whole entry): as the sequence (Q96SW2 whole entry) above
T2 sequence (Q16531 whole entry partner): as the sequence (Q16531 whole entry partner) above

What is called IC50 is the midpoint of a concentration-inhibition curve. With `O=C1CCC(N2Cc3cc(CN4CCc5sccc5C4)ccc3C2=O)C(=O)N1` (stereo not drawn) [GT-04200, 3-(5-((6,7-dihydrothieno[3,2-c]pyridin-5(4H)-yl)methyl)-1-oxoisoindolin-2-yl)piperidine-2,6-dione], the “IKZF2 substrate protein remaining %” value on IKZF2 was “A (0% ≤ substrate protein remaining % ≤ 80%)”. The “GSPT1 substrate protein remaining %” value on GSPT1 is given as “B (80%< substrate protein remaining %≤ 100%)”. Moreover, at CK1α, the “CK1a substrate protein remaining %” value is “B (80%< substrate protein remaining %≤ 100%)”. Also, at IKZF3, the “IKZF3 substrate protein remaining %” value is on record as “A (0% ≤ substrate protein remaining % ≤ 80%)”. Besides, the IC50 in assay [1] (setting [2]) lay in the range of 500 to 1000 nM. In addition, the “Weel substrate protein remaining %” value on WEE1 is “A (0% ≤ substrate protein remaining % ≤ 80%)”. In addition, on IKZF1, the “IKZF 1 substrate protein remaining %” value is listed as “B (80%< substrate protein remaining %≤ 100%)”.
Take `O=C1CCC(N2Cc3cc(CN4CCN(c5ncccc5Cl)CC4)ccc3C2=O)C(=O)N1` (stereo not drawn) [GT-04428, 3-(5-((4-(3-chloropyridin-2-yl)piperazin-1-yl)methyl)-1-oxoisoindolin-2-yl)piperidine-2,6-dione]: the “IKZF2 substrate protein remaining %” value at IKZF2 was “B (80%< substrate protein remaining %≤ 100%)”. Also, the “GSPT1 substrate protein remaining %” value at GSPT1 is “A (0% ≤ substrate protein remaining % ≤ 80%)”. At CK1α, the “CK1a substrate protein remaining %” value is on record as “B (80%< substrate protein remaining %≤ 100%)”. For the same compound, the “IKZF3 substrate protein remaining %” value at IKZF3 was “B (80%< substrate protein remaining %≤ 100%)”. Further, the IC50 in assay [1] (setting [2]) was under 500 nM. At WEE1, the “Weel substrate protein remaining %” value is “B (80%< substrate protein remaining %≤ 100%)”. Moreover, the “IKZF 1 substrate protein remaining %” value on IKZF1 was “B (80%< substrate protein remaining %≤ 100%)”.
Take `O=C1CCC(N2Cc3cc(CN4CCN(c5ccc(C(F)(F)F)cn5)CC4)ccc3C2=O)C(=O)N1` (stereo not drawn) [GT-04433, 3-(1-oxo-5-((4-(5-(trifluoromethyl)pyridin-2-yl)piperazin-1-yl)methyl)isoindolin-2-yl)piperidine-2,6-dione]: on IKZF2, the “IKZF2 substrate protein remaining %” value is “B (80%< substrate protein remaining %≤ 100%)”. The “GSPT1 substrate protein remaining %” value at GSPT1 is on record as “A (0% ≤ substrate protein remaining % ≤ 80%)”. Besides, the “CK1a substrate protein remaining %” value at CK1α is listed as “B (80%< substrate protein remaining %≤ 100%)”. Also, on IKZF3, the “IKZF3 substrate protein remaining %” value is reported as “B (80%< substrate protein remaining %≤ 100%)”. Also, the IC50 in assay [1] (setting [2]) is 1000 to 1500 nM. The “Weel substrate protein remaining %” value on WEE1 is “B (80%< substrate protein remaining %≤ 100%)”. Besides, the “IKZF 1 substrate protein remaining %” value at IKZF1 is recorded as “B (80%< substrate protein remaining %≤ 100%)”.
`O=C1CCC(N2Cc3cc(CN4CCN(c5ncccc5C(F)(F)F)CC4)ccc3C2=O)C(=O)N1` (stereo not drawn) [GT-04434, 3-(1-oxo-5-((4-(3-(trifluoromethyl)pyridin-2-yl)piperazin-1-yl)methyl)isoindolin-2-yl)piperidine-2,6-dione]: on IKZF2, the “IKZF2 substrate protein remaining %” value is reported as “B (80%< substrate protein remaining %≤ 100%)”. Further, the “GSPT1 substrate protein remaining %” value at GSPT1 is “A (0% ≤ substrate protein remaining % ≤ 80%)”. On CK1α, the “CK1a substrate protein remaining %” value is listed as “B (80%< substrate protein remaining %≤ 100%)”. Also, the “IKZF3 substrate protein remaining %” value on IKZF3 is given as “B (80%< substrate protein remaining %≤ 100%)”. For the same compound, in assay [1] (setting [2]), the IC50 lay within 500 to 1000 nM. Also, the “Weel substrate protein remaining %” value at WEE1 was “B (80%< substrate protein remaining %≤ 100%)”. The “IKZF 1 substrate protein remaining %” value at IKZF1 is “B (80%< substrate protein remaining %≤ 100%)”.
Turning to `Cc1ccc(N2CCN(Cc3ccc4c(c3)CN(C3CCC(=O)NC3=O)C4=O)CC2)c(C)c1` (stereo not drawn) [GT-04439, 3-(5-((4-(2,4-dimethylphenyl)piperazin-1-yl)methyl)-1-oxoisoindolin-2-yl)piperidine-2,6-dione], the “IKZF2 substrate protein remaining %” value on IKZF2 is reported as “A (0% ≤ substrate protein remaining % ≤ 80%)”. In addition, on GSPT1, the “GSPT1 substrate protein remaining %” value is listed as “A (0% ≤ substrate protein remaining % ≤ 80%)”. Besides, the “CK1a substrate protein remaining %” value at CK1α is listed as “A (0% ≤ substrate protein remaining % ≤ 80%)”. Besides, the “IKZF3 substrate protein remaining %” value on IKZF3 is “A (0% ≤ substrate protein remaining % ≤ 80%)”. In addition, in assay [1] (setting [2]), the IC50 fell in the range of 1000 to 1500 nM. In addition, at WEE1, the “Weel substrate protein remaining %” value is on record as “A (0% ≤ substrate protein remaining % ≤ 80%)”. Further, the “IKZF 1 substrate protein remaining %” value at IKZF1 is “A (0% ≤ substrate protein remaining % ≤ 80%)”.
`O=C1CCC(N2Cc3cc(CN4CCN(c5ccccn5)CC4)ccc3C2=O)C(=O)N1` (stereo not drawn) [GT-04449, 3-(1-oxo-5-((4-(pyridin-2-yl)piperazin-1-yl)methyl)isoindolin-2-yl)piperidine-2,6-dione]: the “IKZF2 substrate protein remaining %” value at IKZF2 was “A (0% ≤ substrate protein remaining % ≤ 80%)”. Moreover, the “GSPT1 substrate protein remaining %” value at GSPT1 was “A (0% ≤ substrate protein remaining % ≤ 80%)”. At CK1α, the “CK1a substrate protein remaining %” value is on record as “A (0% ≤ substrate protein remaining % ≤ 80%)”. The “IKZF3 substrate protein remaining %” value at IKZF3 is listed as “A (0% ≤ substrate protein remaining % ≤ 80%)”. For the same compound, in assay [1] (setting [2]), the IC50 was 500 to 1000 nM. Moreover, the “Weel substrate protein remaining %” value on WEE1 is on record as “A (0% ≤ substrate protein remaining % ≤ 80%)”. For the same compound, the “IKZF 1 substrate protein remaining %” value at IKZF1 was “A (0% ≤ substrate protein remaining % ≤ 80%)”.
For `O=C1CCC(N2Cc3cc(CN4CCN(c5ccncc5)CC4)ccc3C2=O)C(=O)N1` (stereo not drawn) [GT-04450, 3-(1-oxo-5-((4-(pyridin-4-yl)piperazin-1-yl)methyl)isoindolin-2-yl)piperidine-2,6-dione], the “IKZF2 substrate protein remaining %” value on IKZF2 is reported as “B (80%< substrate protein remaining %≤ 100%)”. For the same compound, the “GSPT1 substrate protein remaining %” value at GSPT1 is “A (0% ≤ substrate protein remaining % ≤ 80%)”. Further, the “CK1a substrate protein remaining %” value at CK1α is recorded as “B (80%< substrate protein remaining %≤ 100%)”. Besides, the “IKZF3 substrate protein remaining %” value at IKZF3 was “B (80%< substrate protein remaining %≤ 100%)”. Moreover, the 50% inhibitory concentration (IC50) in assay [1] (setting [2]) lay in the range of 500 to 1000 nM. Further, at WEE1, the “Weel substrate protein remaining %” value is “B (80%< substrate protein remaining %≤ 100%)”. The “IKZF 1 substrate protein remaining %” value at IKZF1 is reported as “B (80%< substrate protein remaining %≤ 100%)”.
Regarding `O=C1CCC(N2C(=O)c3ccc(CN4CCN(c5ncnc6scc(-c7ccccc7)c56)CC4)cc3C2=O)C(=O)N1` (stereo not drawn) [GT-06345, 2-(2,6-dioxopiperidin-3-yl)-5-((4-(5-phenylthieno[2,3-d]pyrimidin-4-yl)piperazin-1-yl)methyl)isoindoline-1,3-dione], the IC50 in assay [1] (setting [2]) lay in the range of 1000 to 1500 nM.
For the compound `Cc1nc(N2CCN(Cc3ccc4c(c3)C(=O)N(C3CCC(=O)NC3=O)C4=O)CC2)c2c(-c3ccccc3)csc2n1` (stereo not drawn) [GT-06346, 2-(2,6-dioxopiperidin-3-yl)-5-((4-(2-methyl-5-phenylthieno[2,3-d]pyrimidin-4-yl)piperazin-1-yl)methyl)isoindoline-1,3-dione], the IC50 in assay [1] (setting [2]) lay within 1000 to 1500 nM.
Still for that read-out and setting: under `O=C1CCC(N2C(=O)c3ccc(CN4CCC(c5ncnc6scc(-c7ccccc7)c56)CC4)cc3C2=O)C(=O)N1` (stereo not drawn) [GT-06595, 2-(2,6-dioxopiperidin-3-yl)-5-((4-(5-phenylthieno[2,3-d]pyrimidin-4-yl)piperidin-1-yl)methyl)isoindoline-1,3-dione] stands 1000 to 1500 nM; under `O=C1CCC(N2C(=O)c3ccc(CN4CCN(c5ccc(Cl)nn5)CC4)cc3C2=O)C(=O)N1` (stereo not drawn) [GT-06605, 5-((4-(6-chloropyridazin-3-yl)piperazin-1-yl)methyl)-2-(2,6-dioxopiperidin-3-yl)isoindoline-1,3-dione], 1500 to 1900 nM.
As for `O=C1CCC(N2C(=O)c3ccc(CN4CCN(c5nc6c(c(N7CCOCC7)n5)SCC6)CC4)cc3C2=O)C(=O)N1` (stereo not drawn) [GT-06713, 2-(2,6-dioxopiperidin-3-yl)-5-((4-(4-morpholino-6,7-dihydrothieno[3,2-d]pyrimidin-2-yl)piperazin-1-yl)methyl)isoindoline-1,3-dione], in assay [1] (read-out: HTRF IC50; HTRF inhibitory activity, CEREBLON BINDING kit), the IC50 is 1500 to 1900 nM.
